From ChEMBL document CHEMBL1125892 (J Med Chem, 1991) come the findings set out here.

For assay [1], the target named is T1, 5-hydroxytryptamine receptor 1A (Rattus norvegicus, UniProt P19327).
T1 sequence (P19327 whole entry): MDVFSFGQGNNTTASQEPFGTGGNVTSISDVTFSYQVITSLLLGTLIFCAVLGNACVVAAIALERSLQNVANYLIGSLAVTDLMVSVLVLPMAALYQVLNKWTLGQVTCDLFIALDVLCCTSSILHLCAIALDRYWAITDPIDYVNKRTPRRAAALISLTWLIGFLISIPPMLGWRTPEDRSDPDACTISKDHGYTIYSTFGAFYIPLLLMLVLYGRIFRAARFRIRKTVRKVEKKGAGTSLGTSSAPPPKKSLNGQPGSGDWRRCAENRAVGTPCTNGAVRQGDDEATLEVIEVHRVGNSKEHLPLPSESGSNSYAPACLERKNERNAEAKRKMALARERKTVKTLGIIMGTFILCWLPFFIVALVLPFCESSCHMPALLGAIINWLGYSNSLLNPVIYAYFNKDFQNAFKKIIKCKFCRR
The assay can be described thus: Binding affinity against 5-hydroxytryptamine 1A receptor using in rat hippocampal tissue using [3H]8-OH-DPAT as radioligand. In kind it is tissue-based, Hippocampus.

For assay [2], the system named is Rattus norvegicus. The assay can be described thus: In vivo inhibition of conditional avoidance response in rats(CAR), after po administration. Format: functional.
Assay [3] deals with T2, D(2) dopamine receptor (Rattus norvegicus, UniProt P61169).
Assay [4] concerns the target T2, D(2) dopamine receptor. Put plainly: Binding affinity against dopamine receptor D2 in rat corpus striatal tissue using [3H]spiperone as radioligand. Format: tissue-based, Striatum.
For assay [5], the species on record is Rattus norvegicus. Put plainly: Selectivity ratio of IC50 for dopamine receptor and Alpha-1 receptor.
Assay [6] concerns the target T3, Adrenergic receptor alpha-1 (Rattus norvegicus, UniProt P15823+P23944+P43140).
T3 sequence (P15823 whole entry): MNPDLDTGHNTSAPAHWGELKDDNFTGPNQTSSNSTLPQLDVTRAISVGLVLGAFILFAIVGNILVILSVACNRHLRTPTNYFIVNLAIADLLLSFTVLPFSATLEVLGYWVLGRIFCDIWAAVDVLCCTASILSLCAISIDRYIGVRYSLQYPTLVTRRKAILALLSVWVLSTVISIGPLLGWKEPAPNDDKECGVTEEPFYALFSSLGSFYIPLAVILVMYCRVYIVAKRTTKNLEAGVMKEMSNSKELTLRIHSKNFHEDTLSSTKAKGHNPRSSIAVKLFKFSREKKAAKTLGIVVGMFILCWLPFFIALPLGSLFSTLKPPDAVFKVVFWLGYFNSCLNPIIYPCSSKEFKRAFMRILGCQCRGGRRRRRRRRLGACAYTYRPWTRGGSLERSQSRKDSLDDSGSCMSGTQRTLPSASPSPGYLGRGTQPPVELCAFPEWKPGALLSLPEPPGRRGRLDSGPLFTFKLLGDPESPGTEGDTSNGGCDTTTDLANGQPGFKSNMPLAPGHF
T3 sequence (P23944 whole entry): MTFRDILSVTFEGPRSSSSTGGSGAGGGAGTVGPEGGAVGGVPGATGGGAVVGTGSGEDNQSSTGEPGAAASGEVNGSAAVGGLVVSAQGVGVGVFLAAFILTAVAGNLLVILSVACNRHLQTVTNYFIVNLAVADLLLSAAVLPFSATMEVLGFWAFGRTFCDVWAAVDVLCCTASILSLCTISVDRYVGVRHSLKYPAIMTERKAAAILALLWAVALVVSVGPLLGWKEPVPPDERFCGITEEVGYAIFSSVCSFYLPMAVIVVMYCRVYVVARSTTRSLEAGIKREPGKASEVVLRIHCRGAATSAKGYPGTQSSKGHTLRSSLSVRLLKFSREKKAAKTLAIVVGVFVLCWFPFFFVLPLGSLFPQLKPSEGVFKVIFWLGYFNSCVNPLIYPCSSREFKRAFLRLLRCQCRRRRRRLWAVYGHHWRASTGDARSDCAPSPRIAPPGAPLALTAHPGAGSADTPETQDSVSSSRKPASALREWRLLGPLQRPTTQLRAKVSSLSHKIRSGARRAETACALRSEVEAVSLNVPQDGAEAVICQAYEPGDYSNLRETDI
T3 sequence (P43140 whole entry): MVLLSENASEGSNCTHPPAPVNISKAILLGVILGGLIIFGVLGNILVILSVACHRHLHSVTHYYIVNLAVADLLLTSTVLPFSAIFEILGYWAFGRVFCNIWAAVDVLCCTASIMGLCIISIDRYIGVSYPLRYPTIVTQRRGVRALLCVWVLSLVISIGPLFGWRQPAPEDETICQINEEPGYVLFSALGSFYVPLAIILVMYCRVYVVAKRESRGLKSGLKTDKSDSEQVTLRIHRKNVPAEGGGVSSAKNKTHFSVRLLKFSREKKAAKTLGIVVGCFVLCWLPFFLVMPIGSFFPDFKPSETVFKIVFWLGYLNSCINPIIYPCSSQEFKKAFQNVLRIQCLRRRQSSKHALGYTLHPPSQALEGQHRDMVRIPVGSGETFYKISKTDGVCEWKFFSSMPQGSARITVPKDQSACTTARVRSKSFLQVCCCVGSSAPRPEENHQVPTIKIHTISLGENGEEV
The assay can be described thus: Binding affinity against alpha-1 adrenergic receptor in rat cerebral cortex tissue using [3H]WB-4101 as radioligand. In kind it is tissue-based.

Assay [7] deals with T1, 5-hydroxytryptamine receptor 1A. The assay can be described thus: Displacement of [3H]8-OH-DPAT from rat hippocampal 5-hydroxytryptamine 1A receptor; IA-Inactive. Format: tissue-based, Hippocampus. Background: Displacement assays read how much labelled ligand stays bound in the presence of the test substance.
Assay [8] has as its target T4, 5-hydroxytryptamine receptor 2A (Rattus norvegicus, UniProt P14842). Put plainly: Binding affinity against rat 5-hydroxytryptamine 2 receptor in rat cerebral cortex tissue using [3H]spiperone as radioligand; IA-Inactive. Format: tissue-based.
Assay [9] addresses T1, 5-hydroxytryptamine receptor 1A. Put plainly: Binding affinity against 5-hydroxytryptamine 1A receptor of rat hippocampal tissue with [3H]5-HT. In kind it is tissue-based, Hippocampus.
For assay [10], the system named is Rattus norvegicus. The assay can be described thus: In vivo inhibition of conditional avoidance response in rats(CAR), after sc administration. Format: functional.
The test system of assay [11] is Rattus norvegicus. Put plainly: In vivo inhibition of conditional avoidance response in rats(CAR), after im administration. Format: functional.
Assay [12] has as its target T2, D(2) dopamine receptor. The assay can be described thus: Binding affinity against Dopamine receptor D2 receptor of rat corpus striatal tissue with [3H]spiperone.
In assay [13] the target is T4, 5-hydroxytryptamine receptor 2A. The assay can be described thus: Binding affinity against rat 5-hydroxytryptamine 2 receptor in rat cerebral cortex tissue using [3H]spiperone as radioligand. Format: tissue-based.

As usually defined, the pIC50 is the negative decadic logarithm of the IC50, by convention in mol/L. Broadly, the ED50 is the dose that gives a 50% effect, or the effect in half of the subjects. Higher therefore signals weaker potency. The IC50 is the point on the concentration scale where inhibition reaches its midpoint.

pIC50: −log10 of the molar value.

T4 sequence (P14842 whole entry): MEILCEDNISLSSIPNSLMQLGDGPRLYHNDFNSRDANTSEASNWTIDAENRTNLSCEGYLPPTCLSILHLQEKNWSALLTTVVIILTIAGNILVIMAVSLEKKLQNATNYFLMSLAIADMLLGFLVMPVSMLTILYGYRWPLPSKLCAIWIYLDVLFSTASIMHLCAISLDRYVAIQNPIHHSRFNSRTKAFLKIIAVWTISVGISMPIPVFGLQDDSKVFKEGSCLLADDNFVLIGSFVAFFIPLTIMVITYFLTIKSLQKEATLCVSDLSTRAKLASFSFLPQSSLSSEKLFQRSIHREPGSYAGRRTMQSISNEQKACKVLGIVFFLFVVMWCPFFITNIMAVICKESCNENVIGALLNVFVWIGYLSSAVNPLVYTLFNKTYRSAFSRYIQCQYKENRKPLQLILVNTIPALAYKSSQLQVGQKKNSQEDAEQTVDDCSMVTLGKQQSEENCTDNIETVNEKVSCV
T2 sequence (P61169 whole entry): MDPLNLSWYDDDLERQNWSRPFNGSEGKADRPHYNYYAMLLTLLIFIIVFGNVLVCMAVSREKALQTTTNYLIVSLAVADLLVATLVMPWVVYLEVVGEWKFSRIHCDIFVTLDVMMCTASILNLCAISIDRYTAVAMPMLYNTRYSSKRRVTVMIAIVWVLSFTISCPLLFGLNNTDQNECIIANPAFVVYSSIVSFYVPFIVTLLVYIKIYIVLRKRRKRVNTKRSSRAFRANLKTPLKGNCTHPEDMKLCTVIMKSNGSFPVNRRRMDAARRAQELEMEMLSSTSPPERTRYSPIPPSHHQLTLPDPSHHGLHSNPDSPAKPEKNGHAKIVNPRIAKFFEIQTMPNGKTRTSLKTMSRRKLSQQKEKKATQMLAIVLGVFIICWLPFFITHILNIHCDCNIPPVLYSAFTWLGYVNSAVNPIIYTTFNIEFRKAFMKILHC

Compound `c1ccc2c(N3CCNCC3)nsc2c1` [BENZISOTHIAZOLE-3-YL-PIPERAZINE] gave a pIC50 in assay [1] of 6.72. The compound further returned a median effective dose (ED50) in the assay with Rattus norvegicus [2] above 100 mg/kg. In addition, the IC50 entry against D(2) dopamine receptor [3] was “Not Active”.
On to `O=C1CC2(CCC(O)C2)CC(=O)N1CCC(O)CN1CCN(c2nsc3ccccc23)CC1` (stereo not drawn), for which the figures for the negative-log IC50 (pIC50) (in assay [1]; at D(2) dopamine receptor [4]) were 7.85 and 6.31, respectively. The Ratio in the assay listed under Rattus norvegicus [5] came to 69. Moreover, the IC50 in [6] is reported as 7.15 nM.
With `O=C1CC2(CCCC2)C(O)C(=O)N1CCCCN1CCN(C2=NS(=O)(=O)c3ccccc32)CC1` (stereo not drawn), the half-maximal inhibitory concentration (IC50) entry (in assay [7]; in assay [8]; on D(2) dopamine receptor [3]) was “Not Active” each time.
As for `COc1ccc2snc(N3CCNCC3)c2c1`, the negative-log IC50 (pIC50) in assay [9] was 7.68. Further, the IC50 entry (in assay [8]; at D(2) dopamine receptor [3]) was “Not Active” throughout.
As to `O=C1CCC2(C1)CC(=O)N(CCCCN1CCN(c3n[s+]([O-])c4ccccc34)CC1)C(=O)C2` (stereo not drawn), the IC50 entry (in assay [7]; in [8]; on D(2) dopamine receptor [3]) was “Not Active” in each case. The median effective dose (ED50) in the assay with Rattus norvegicus [10] was above 100 mg/kg.
Turning to `O=S1(=O)N=C(N2CCNCC2)c2ccccc21` [BENZISOTHIAZOLE-3YL-PIPERAZINE SULFOXIDE], the half-inhibitory concentration (IC50) result (in [7]; in assay [8]; against D(2) dopamine receptor [3]) was “Not Active” each time. Besides, the median effective dose (ED50) in the assay on Rattus norvegicus [2] was above 100 mg/kg.
`O=C1CC2(CCCC2)C(O)C(=O)N1CCCCN1CCN(c2n[s+]([O-])c3ccccc23)CC1` (stereo not drawn): the IC50 entry (in [7]; in [8]; on D(2) dopamine receptor [3]) was “Not Active” in each case.
Take `COc1cccc2c(N3CCNCC3)nsc12`: the half-maximal inhibitory concentration (IC50) result (in assay [7]; in assay [8]; at D(2) dopamine receptor [3]) was “Not Active” in each case.
`O=C1CN(C2=NS(=O)(=O)c3ccccc32)CCN1`: the 50% inhibitory concentration (IC50) result (in assay [7]; in assay [8]; on D(2) dopamine receptor [3]) was “Not Active” in each case. The ED50 with Rattus norvegicus [10] was above 50 mg/kg.
In the case of `O=C1CC2(CCCC2)CC(=O)N1CCCCN1CCN(C2=NS(=O)(=O)c3ccccc32)CC1`, the half-inhibitory concentration (IC50) result (in [7]; in [8]; against D(2) dopamine receptor [3]) was “Not Active” throughout. Also, the ED50 in the assay with Rattus norvegicus [11] was above 10 mg/kg.
Take `O=C1CC2(CCC(O)C2)CC(=O)N1CCCCN1CCN(c2n[s+]([O-])c3ccccc23)CC1` (stereo not drawn): the concentration for half-maximal inhibition (IC50) entry (in assay [7]; in assay [8]; on D(2) dopamine receptor [3]) was “Not Active” throughout. The same compound had an ED50 in the assay with Rattus norvegicus [10] above 100 mg/kg.
Regarding `O=C1CC2(CCC(O)C2)CC(=O)N1CCCCN1CCN(C2=NS(=O)(=O)c3ccccc32)CC1` (stereo not drawn), the IC50 entry (in assay [7]; in assay [8]; on D(2) dopamine receptor [3]) was “Not Active” in each case. The ED50 in the assay on Rattus norvegicus [10] is above 100 mg/kg.
In turn, `COc1cccc2snc(N3CCNCC3)c12` gave a pIC50 in [9] of 6.92. Besides, the IC50 result (in [8]; against D(2) dopamine receptor [3]) was “Not Active” each time.
Take `O=C1CC2(CCCC2)CC(=O)N1CCCCN1CCN(c2nsc3ccccc23)CC1` [TIOSPIRONE]: the negative-log IC50 (pIC50) on D(2) dopamine receptor [12] is 8.08. This compound also had an ED50 in the assay with Rattus norvegicus [11] of 0.35 mg/kg.
For the compound `O=C1CC2(CCCC2)CC(=O)N1CCC(O)CN1CCN(c2n[s+]([O-])c3ccccc23)CC1` (stereo not drawn), the IC50 result (in [7]; in [8]; against D(2) dopamine receptor [3]) was “Not Active” throughout. In addition, the ED50 with Rattus norvegicus [2] was above 50 mg/kg.
With `O=C1CC2(CCCC2)CC(=O)N1CCCCN1CCN(c2n[s+]([O-])c3ccccc23)CC1` (stereo not drawn), the half-inhibitory concentration (IC50) entry (in assay [7]; in assay [8]; on D(2) dopamine receptor [3]) was “Not Active” each time. The compound further gave an ED50 with Rattus norvegicus [2] of 11 mg/kg.
On to `O=C1CC2(CCC(O)C2)CC(=O)N1CCCCN1CCN(c2nsc3ccccc23)CC1` (stereo not drawn), for which the pIC50 is 8.43 in [1] and 7.28 at D(2) dopamine receptor [4]. Also, the Ratio in the assay listed under Rattus norvegicus [5] came out at 60. In [6], this compound showed an IC50 of 0.876 nM.
On the same counts, the results for `O=C1CC2(CCCC2)CC(=O)N1CCC(O)CN1CCN(c2nsc3ccccc23)CC1` (stereo not drawn) are 7.60, 6.95, 13 and 8.3 nM.
As to `O=C1CC2(CCCC2)C(C(=O)NCCCCN2CCN(c3nsc4ccccc34)CC2)O1` (stereo not drawn), the pIC50 in assay [1] is 7.01; in assay [13], 8.35; at D(2) dopamine receptor [4], 6.82. In the assay listed under Rattus norvegicus [5], the Ratio came out at 60. This compound returned a half-inhibitory concentration (IC50) in assay [6] of 2.5 nM.
Turning to `O=C1CC2(CCCC2)C(O)C(=O)N1CCCCN1CCN(c2nsc3ccccc23)CC1` (stereo not drawn), the pIC50 in assay [1] is 8.30. The same compound came in with a median effective dose (ED50) in the assay with Rattus norvegicus [11] of 1 mg/kg.
For `[O-][s+]1nc(N2CCNCC2)c2ccccc21` (stereo not drawn) [BITP-SULFONE], the concentration for half-maximal inhibition (IC50) result (in [7]; in assay [8]; against D(2) dopamine receptor [3]) was “Not Active” throughout. This compound had an ED50 in the assay on Rattus norvegicus [2] above 100 mg/kg.
As to `O=C1CCC2(C1)CC(=O)N(CCCCN1CCN(c3nsc4ccccc34)CC1)C(=O)C2`, the results for the pIC50 (in [1]; at D(2) dopamine receptor [4]) were 8.52 and 7.17, respectively. In addition, the Ratio in the assay filed under Rattus norvegicus [5] is 52. The compound also gave a 50% effective dose (ED50) with Rattus norvegicus [10] above 60.3 mg/kg. In [6], this compound showed an IC50 of 1.3 nM.
`COc1ccc2c(N3CCNCC3)nsc2c1`: the concentration for half-maximal inhibition (IC50) result (in assay [7]; in [8]; at D(2) dopamine receptor [3]) was “Not Active” throughout.
